The subject of data set [1] is corn plant. Conditions: corn at 2.5-leaf stage, spot-on 2nd leaf; dicamba-biproamine 4,000,000 ng/plant (acid equivalent), PPO inhibitor 2 ng/plant where added; 6 days after treatment.
Description: An aqueous dilution of trifludimoxazin was prepared by mixing one part of a trifludimoxazin formulation (obtained by mixing a predetermined amount of trifludimoxazin with acetone containing 2% of Tween 20) with 4 parts of water, so as to have a concentration of 0.1 ppm of trifludimoxazin.
6 days after the spot-on treatments, an angle of inclination of the main tiller of the corn plant from the vertical line was measured as a quantitative measure of dicamba corn injury of leaning tiller.
For data set [2], the system named is soybean plant. Conditions: soybean at 2 trifoliate leaf stage, spot-on 2nd trifoliate leaf; dicamba-biproamine 40,000 ng/plant (acid equivalent), PPO inhibitor 20 ng/plant where added; 6 days after treatment; visually estimated.

The structures appear in SMILES notation.

Turning to `CN(CCCN)CCCN.COc1c(Cl)ccc(Cl)c1C(=O)O` [Dicamba-biproamine, dicamba-biproamine], the “Angle of inclination of the main tiller from the vertical line” value in data set [1] was 90 degrees. In addition, the “Leaf area (% of non-treated)” value in data set [2] is 40%.

(Values after patent US10674725B1, “Herbicidal composition and method for controlling weeds” (SUMITOMO CHEMICAL COMPANY, LIMITED, priority 2019, dated 2020).)
